Measurements published in ChEMBL document CHEMBL1159163, “Amselamine, a new selective histamine H2-receptor agonist” (Bioorg Med Chem Lett, 1994).

Key:
[1] = molecular target: Histamine H2 receptor (Cavia porcellus) (UniProt P47747); assay: Histamine H2 receptor activity was determined on the isolated spontaneously beating guinea pig right atrium; format: tissue-based; settings: Cardiac atrium
[2] = pKa1 (aliphatic amine); format: physicochemical; settings: read-out: pKa1
[3] = pKa2 (heterocyclic ring); format: physicochemical; settings: read-out: pKa2
[4] = molecular target: Histamine H1 receptor (Cavia porcellus, UniProt P31389); assay: Tested for affinity towards H1 receptor in guinea pig ileum; format: tissue-based; settings: read-out: pA2 (converted)
[5] = molecular target: Histamine H3 receptor (Cavia porcellus) (UniProt Q9JI35); assay: Tested for affinity towards Histamine H3 receptor in electrically stimulated guinea pig jejunum; format: tissue-based
[6] = molecular target: Histamine H2 receptor (Rattus norvegicus, UniProt P25102); assay: Affinity to the Histamine H2 receptor was determined expressed in CHO cell using [125I]iodoaminopotentidine as radioligand; format: cell-based
Histamine H2 receptor, sequence (P25102 whole entry): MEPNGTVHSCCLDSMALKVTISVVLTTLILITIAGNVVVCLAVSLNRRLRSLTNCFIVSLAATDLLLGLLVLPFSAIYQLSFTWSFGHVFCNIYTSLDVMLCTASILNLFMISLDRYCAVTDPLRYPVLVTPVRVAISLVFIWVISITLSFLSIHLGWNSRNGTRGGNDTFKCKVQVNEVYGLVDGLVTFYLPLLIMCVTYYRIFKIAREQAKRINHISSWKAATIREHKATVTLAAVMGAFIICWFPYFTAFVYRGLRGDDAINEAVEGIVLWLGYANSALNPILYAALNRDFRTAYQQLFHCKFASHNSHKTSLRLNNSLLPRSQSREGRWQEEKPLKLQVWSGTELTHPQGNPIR

Histamine H3 receptor (Cavia porcellus), sequence (Q9JI35 whole entry): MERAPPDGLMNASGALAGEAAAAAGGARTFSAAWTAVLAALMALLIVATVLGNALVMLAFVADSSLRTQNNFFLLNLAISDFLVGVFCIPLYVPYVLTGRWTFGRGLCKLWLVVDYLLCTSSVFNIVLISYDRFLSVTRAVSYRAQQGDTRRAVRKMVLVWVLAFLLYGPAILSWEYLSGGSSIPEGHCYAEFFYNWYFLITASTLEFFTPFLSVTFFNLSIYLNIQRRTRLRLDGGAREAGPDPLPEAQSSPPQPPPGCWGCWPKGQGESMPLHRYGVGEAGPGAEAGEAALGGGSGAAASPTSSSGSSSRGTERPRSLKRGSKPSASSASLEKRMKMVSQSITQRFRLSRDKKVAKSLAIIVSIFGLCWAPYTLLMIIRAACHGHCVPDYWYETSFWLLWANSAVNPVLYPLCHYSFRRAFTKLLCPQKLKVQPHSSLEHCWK
Histamine H2 receptor (Cavia porcellus), sequence (P47747 whole entry): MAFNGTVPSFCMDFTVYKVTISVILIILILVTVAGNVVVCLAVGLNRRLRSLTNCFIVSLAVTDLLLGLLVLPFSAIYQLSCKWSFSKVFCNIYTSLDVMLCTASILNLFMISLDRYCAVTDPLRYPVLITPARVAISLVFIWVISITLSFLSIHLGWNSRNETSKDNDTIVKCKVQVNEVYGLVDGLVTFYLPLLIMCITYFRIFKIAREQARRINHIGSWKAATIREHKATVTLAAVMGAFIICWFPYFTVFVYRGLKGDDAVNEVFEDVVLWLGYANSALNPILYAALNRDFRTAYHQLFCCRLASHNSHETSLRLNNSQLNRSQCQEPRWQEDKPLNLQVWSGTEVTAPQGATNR
Histamine H1 receptor, sequence (P31389 whole entry): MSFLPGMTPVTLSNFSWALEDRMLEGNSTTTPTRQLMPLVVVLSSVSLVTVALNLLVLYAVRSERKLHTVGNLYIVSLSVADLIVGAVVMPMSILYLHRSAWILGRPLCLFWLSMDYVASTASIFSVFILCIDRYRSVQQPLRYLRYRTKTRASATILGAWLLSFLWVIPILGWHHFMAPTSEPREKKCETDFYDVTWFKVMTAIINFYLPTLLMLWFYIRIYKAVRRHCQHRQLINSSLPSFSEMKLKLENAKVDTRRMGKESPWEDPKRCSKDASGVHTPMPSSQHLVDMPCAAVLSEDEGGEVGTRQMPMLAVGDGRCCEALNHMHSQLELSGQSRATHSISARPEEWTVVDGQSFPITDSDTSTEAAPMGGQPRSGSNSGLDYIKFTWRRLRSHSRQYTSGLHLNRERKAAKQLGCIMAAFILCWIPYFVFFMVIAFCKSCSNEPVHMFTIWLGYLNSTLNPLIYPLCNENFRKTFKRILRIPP

Row | Compound | pD2 [1] | pKa [2] | pKa [3] | Kb [4] [µM] | pD2 [5] | Kd [6] [µM]
1 | Cc1nc(N)[se]c1CCN | 6.41 | 9.21 | 5.78 | 141 | 4.44 | 9.77
2 | Cc1nc(N)sc1CCN [AMTHAMINE] | – | 9.15 | 5.4 | – | – | 11.5
3 | NCCc1c[nH]cn1 [HISTAMINE] | – | 9.32 | 5.93 | – | – | 117
